# Assay results published in ChEMBL document CHEMBL2311450, “Synthesis and antibacterial evaluation of novel 11,4″-disubstituted azithromycin analogs with greatly improved activity against erythromycin-resistant bacteria” (2013).
# Columns and labels:
# Salmonella typhimurium [1] = assay: Antibacterial activity against Salmonella typhimurium TA102 by broth microdilution method; type: functional, Salmonella enterica subsp. enterica serovar Typhimurium; settings: Salmonella enterica
# Salmonella typhimurium [2] = assay: Antibacterial activity against Salmonella typhimurium TA98 by broth microdilution method; type: functional, Salmonella enterica subsp. enterica serovar Typhimurium; settings: Salmonella enterica
# Streptococcus pneumoniae [3] = assay: Ratio of azithromycin MIC to compound MIC for erythromycin-resistant Streptococcus pneumoniae AB11 expressing erm and mef genes; type: functional
# Streptococcus pneumoniae [4] = assay: Ratio of azithromycin MIC to compound MIC for erythromycin-resistant Streptococcus pneumoniae A22072 expressing mef gene; type: functional
# Streptococcus pneumoniae [5] = assay: Ratio of azithromycin MIC to compound MIC for erythromycin-resistant Streptococcus pneumoniae B1; type: functional
# Streptococcus pyogenes [6] = assay: Antibacterial activity against erythromycin-resistant Streptococcus pyogenes RE clinical isolate by broth microdilution method; type: functional
# Streptococcus pyogenes [7] = assay: Antibacterial activity against erythromycin-susceptible Streptococcus pyogenes by broth microdilution method; type: functional
# Staphylococcus aureus [8] = assay: Antibacterial activity against methicillin-susceptible Staphylococcus aureus ATCC 29213 by broth microdilution method; type: functional
# Staphylococcus aureus [9] = assay: Antibacterial activity against penicillin-resistant Staphylococcus aureus clinical isolate by broth microdilution method; type: functional
# Staphylococcus aureus [10] = assay: Antibacterial activity against erythromycin-susceptible Staphylococcus aureus ATCC 25923 by broth microdilution method; type: functional
# Streptococcus pneumoniae [11] = assay: Antibacterial activity against erythromycin-resistant Streptococcus pneumoniae AB11 expressing erm and mef genes by broth microdilution method; type: functional
# Streptococcus pneumoniae [12] = assay: Antibacterial activity against erythromycin-resistant Streptococcus pneumoniae A22072 expressing mef gene by broth microdilution method; type: functional
# Streptococcus pneumoniae [13] = assay: Antibacterial activity against erythromycin-resistant Streptococcus pneumoniae B1 expressing erm gene by broth microdilution method; type: functional
# Streptococcus pneumoniae [14] = assay: Antibacterial activity against erythromycin-susceptible Streptococcus pneumoniae ATCC 49619 by broth microdilution method; type: functional
SMILES,MIC (Salmonella typhimurium [1]) [µg/mL],MIC (Salmonella typhimurium [2]) [µg/mL],Ratio (Streptococcus pneumoniae [3]),Ratio (Streptococcus pneumoniae [4]),Ratio (Streptococcus pneumoniae [5]),MIC (Streptococcus pyogenes [6]) [µg/mL],MIC (Streptococcus pyogenes [7]) [µg/mL],MIC (Staphylococcus aureus [8]) [µg/mL],MIC (Staphylococcus aureus [9]) [µg/mL],MIC (Staphylococcus aureus [10]) [µg/mL],MIC (Streptococcus pneumoniae [11]) [µg/mL],MIC (Streptococcus pneumoniae [12]) [µg/mL],MIC (Streptococcus pneumoniae [13]) [µg/mL],MIC (Streptococcus pneumoniae [14]) [µg/mL]
CC[C@H]1OC(=O)[C@H](C)[C@@H](O[C@H]2C[C@@](C)(OC)[C@@H](OC(=O)NCCCCNC(=O)c3cc([N+](=O)[O-])cc([N+](=O)[O-])c3)[C@H](C)O2)[C@H](C)[C@@H](O[C@@H]2O[C@H](C)C[C@H](N(C)C)[C@H]2O)[C@](C)(O)C[C@@H](C)CN(C)[C@H](C)[C@@H](OC(=O)NCCc2ccc(OC)cc2)[C@]1(C)O,0.5,1,128,133,512,16,1,4,4,0.25,2,0.03,0.25,0.03
CC[C@H]1OC(=O)[C@H](C)[C@@H](O[C@H]2C[C@@](C)(OC)[C@@H](OC(=O)NCCCCNC(=O)c3cc([N+](=O)[O-])cc([N+](=O)[O-])c3)[C@H](C)O2)[C@H](C)[C@@H](O[C@@H]2O[C@H](C)C[C@H](N(C)C)[C@H]2O)[C@](C)(O)C[C@@H](C)CN(C)[C@H](C)[C@@H](OC(=O)NCCc2ccccc2Cl)[C@]1(C)O,0.25,1,128,133,512,16,1,4,2,0.12,2,0.03,0.25,0.03
CC[C@H]1OC(=O)[C@H](C)[C@@H](O[C@H]2C[C@@](C)(OC)[C@@H](OC(=O)NCCCCNC(=O)c3cc([N+](=O)[O-])cc([N+](=O)[O-])c3)[C@H](C)O2)[C@H](C)[C@@H](O[C@@H]2O[C@H](C)C[C@H](N(C)C)[C@H]2O)[C@](C)(O)C[C@@H](C)CN(C)[C@H](C)[C@@H](OC(=O)NCc2ccc(F)c(F)c2)[C@]1(C)O,0.5,1,128,133,512,16,2,4,4,0.25,2,0.03,0.25,0.03
CC[C@H]1OC(=O)[C@H](C)[C@@H](O[C@H]2C[C@@](C)(OC)[C@@H](OC(=O)NCCCCNC(=O)c3ccc(OC)cc3)[C@H](C)O2)[C@H](C)[C@@H](O[C@@H]2O[C@H](C)C[C@H](N(C)C)[C@H]2O)[C@](C)(O)C[C@@H](C)CN(C)[C@H](C)[C@@H](OC(=O)NCCc2ccc(F)cc2)[C@]1(C)O,2,4,,,,64,16,2,4,1,8,0.5,4,0.12
CC[C@H]1OC(=O)[C@H](C)[C@@H](O[C@H]2C[C@@](C)(OC)[C@@H](OC(=O)NCCCCNC(=O)c3ccc(OC)cc3)[C@H](C)O2)[C@H](C)[C@@H](O[C@@H]2O[C@H](C)C[C@H](N(C)C)[C@H]2O)[C@](C)(O)C[C@@H](C)CN(C)[C@H](C)[C@@H](OC(=O)NCCc2ccccc2)[C@]1(C)O,0.5,4,,,,64,16,0.5,4,1,4,0.25,1,0.06
CC[C@H]1OC(=O)[C@H](C)[C@@H](O[C@H]2C[C@@](C)(OC)[C@@H](O)[C@H](C)O2)[C@H](C)[C@@H](O[C@@H]2O[C@H](C)C[C@H](N(C)C)[C@H]2O)[C@](C)(OC)C[C@@H](C)C(=O)[C@H](C)[C@@H](O)[C@]1(C)O [CLARITHROMYCIN],0.25,0.5,,,,4,0.03,0.12,0.03,0.12,128,4,64,0.03
